Source: patent US4906623A, “3-Imidazolium cephalosporin derivatives” (Otsuka Kagaku Kabushiki Kaisha, priority 1985, dated 1990)
≈ marks a conversion by molar mass, not a printed value. Where two headings read alike, the source gives them in different places.

Assays:
Assay in all cases: in vitro anti-bacterial activity, two-fold agar plate dilution method
Type in all cases: cell-based
[1] = system: Escherichia coli CSH(RE45); settings: 37° C., 20 hours, read-out: MIC
Description: (§1) The agent for preventing and treating bacterial infections was tested for in vitro anti-bacterial activity by the following two-fold agar plate dilution method. Each test strain was incubated for 20 hours in a bouillon for measuring sensitivity to obtain a test culture (containing about […]). Portions of sensitivity measuring agar medium containing varying concentrations of the antibacterial agent were each innoculated with a 0.005 ml portion of the culture, followed by incubation at 37° C. for 20 hours. The minimum growth inhibitory concentration (MIC) in μg/ml was then determined.
(§2) MIC=minimum inhibitory concentration

[2] = system: Escherichia coli NIHJ-JC2
Description: as §1, §2

Klebsiella pneumoniae = system: Klebsiella pneumoniae
Description: as §1, §2

Proteus mirabilis = system: Proteus mirabilis
Description: as §1, §2

Proteus vulgaris = system: Proteus vulgaris
Description: as §1, §2

Pseudomonas aeruginosa = system: Pseudomonas aeruginosa
Description: as §1, §2

Pseudomonas cepacia = settings: Burkholderia cepacia, 37° C., 20 hours, read-out: MIC
Description: as §1, §2

Serratia marcescens = system: Serratia marcescens
Description: as §1, §2

[3] = system: Staphylococcus aureus 209P; settings: Staphylococcus aureus 209P; agar dilution, 37° C., 20 hours; read-out: MIC
Description: as §1, §2

[4] = NIHJJC2, Escherichia coli NIHJ-JC2, agar dilution, 37° C., 20 hours, read-out: MIC
[5] = agar dilution, 37° C., 20 hours, read-out: MIC

Row | Compound | MIC [1] [µg/mL] | MIC [2, 4] [µg/mL] | MIC (Klebsiella pneumoniae; [5]) [µg/mL] | MIC (Proteus mirabilis; 20 h) [µg/mL] | MIC (Proteus vulgaris; 20 h) [µg/mL] | MIC (Pseudomonas aeruginosa; [5]) [µg/mL] | MIC (Pseudomonas cepacia) [µg/mL] | MIC (Serratia marcescens; [5]) [µg/mL] | MIC [3] [µg/mL] | MIC (Klebsiella pneumoniae; 20 h) [µg/mL] | MIC (Pseudomonas aeruginosa; 20 h) [µg/mL] | MIC (Serratia marcescens; 20 h) [µg/mL] | MIC ([2]; Escherichia coli, NIHJJC2, 20 h) [µg/mL] | MIC (Proteus mirabilis; [5]) [µg/mL] | MIC (Proteus vulgaris; [5]) [µg/mL]
1 | CC(C)(O/N=C(\C(=O)NC1C(=O)N2C(C(=O)[O-])=C(C[n+]3cn(Cc4ccccc4)c4ccccc43)CSC12)c1csc(N)n1)C(=O)O (stereo not drawn) [P, 7-{2-(2-aminothiazole-4-yl)-2-[potassium(2,2-dimethylacetate)oxyimino]acetamide}-3-(benz-3-N-benzyl-1-imidazoliomethyl)-3-cephem-4-carboxylate] | 1.56 | 3.13 | 6.25 | 3.13 | 1.56 | 6.25 | 50 | 6.25 | 3.13 | – | – | – | – | – | –
2 | C#CCn1c[n+](CC2=C(C(=O)[O-])N3C(=O)C(NC(=O)/C(=N\OC(C)(C)C(=O)O)c4csc(N)n4)C3SC2)c2ccccc21 (stereo not drawn) [Q, 7-{2-(2-aminothiazole-4-yl)-2-[potassium(2,2-dimethylacetate)oxyimino]acetamide}-3-[benz-3-N-(2-propynyl)-1-imidazoliomethyl]-3-cephem-4-carboxylate] | 0.2 | 0.2 | – | 0.39 | 0.1 | – | 12.5 | – | 3.13 | 0.78 | 3.13 | 0.78 | – | – | –
3 | C=C(C)Cn1c[n+](CC2=C(C(=O)[O-])N3C(=O)C(NC(=O)/C(=N\OC(C)(C)C(=O)O)c4csc(N)n4)C3SC2)c2ccccc21 (stereo not drawn) [R, 7-{2-(2-aminothiazole-4-yl)-2-[potassium(2,2-dimethylacetate)oxyimino]acetamide}-3-[benz-3-N-(2-methyl-2-propenyl)-1-imidazoliomethyl]-3-cephem-4-carboxylate] | 1.56 | 0.78 | – | 3.13 | 0.78 | 12.5 | 25 | – | 6.25 | 3.13 | – | 1.56 | – | – | –
4 | CCCCn1c[n+](CC2=C(C(=O)[O-])N3C(=O)C(NC(=O)/C(=N\OC(C)(C)C(=O)O)c4csc(N)n4)C3SC2)c2ccccc21 (stereo not drawn) [T, 7-{2-(2-aminothiazole-4-yl)-2-[potassium(2,2-dimethylacetate)oxyimino]acetamide}-3-(benz-3-N-butyl-1-imidazoliomethyl)-3-cephem-4-carboxylate] | 0.39 | 1.56 | – | 3.13 | 0.78 | 6.25 | 25 | – | 3.13 | 3.13 | – | 1.56 | – | – | –
5 | C=CCn1c[n+](CC2=C(C(=O)[O-])N3C(=O)C(NC(=O)/C(=N\OC(C)(C)C(=O)O)c4csc(N)n4)C3SC2)c2ccccc21 (stereo not drawn) [U, 7-{2-(2-aminothiazole-4-yl)-2-[potassium(2,2-dimethylacetate)oxyimino]acetamide}-3-[benz-3-N-(2-propenyl)-1-imidazoliomethyl]-3-cephem-4-carboxylate] | 0.2 | 0.39 | – | 1.56 | 0.39 | 6.25 | 25 | – | 6.25 | 0.78 | – | 1.56 | – | – | –
6 | C=CCn1c[n+](CC2=C(C(=O)[O-])N3C(=O)C(NC(=O)/C(=N\OC)c4csc(N)n4)C3SC2)c2ccccc21 (stereo not drawn) [V, 7-[2-(2-aminothiazole-4-yl)-2-methoxyiminoacetamide}-3-[benz-3-N-(2-propenyl)-1-imidazoliomethyl]-3-cephem-4-carboxylate] | 3.13 (≈ 5.65 µM) | – | 1.56 (≈ 2.82 µM) | – | – | > 100 | > 100 | 12.5 (≈ 22.6 µM) | 3.13 (≈ 5.65 µM) | – | – | – | 0.78 (≈ 1.41 µM) | 6.25 (≈ 11.3 µM) | 3.13 (≈ 5.65 µM)
7 | C=CCO/N=C(\C(=O)NC1C(=O)N2C(C(=O)[O-])=C(C[n+]3cn(CC=C)c4ccccc43)CSC12)c1csc(N)n1 (stereo not drawn) [W, 7-[2-(2-aminothiazole-4-yl)-2-(2-propenyloxyimino)acetamide]-3-[benz-3-N-(2-propeny)-1-imidazoliomethyl]-3-cephem-4-carboxylate] | 1.56 (≈ 2.69 µM) | 3.13 (≈ 5.4 µM) | 6.25 (≈ 10.8 µM) | – | 3.13 (≈ 5.4 µM) | 50 (≈ 86.3 µM) | > 100 | 25 (≈ 43.1 µM) | 1.56 (≈ 2.69 µM) | – | – | – | – | 6.25 (≈ 10.8 µM) | –
8 | CC=CCn1c[n+](CC2=C(C(=O)[O-])N3C(=O)C(NC(=O)/C(=N\OC(C)(C)C(=O)O)c4csc(N)n4)C3SC2)c2ccccc21 (stereo not drawn) [X, 7-{2-(2-aminothiazole-4-yl)-2-[potassium(2,2-dimethylacetate)oxyimino]acetamide}-3-[benz-3-N-(2-butenyl)-1-imidazoliomethyl]-3-cephem-4-carboxylate] | 0.78 | 1.56 | – | 1.56 | 1.56 | 12.5 | 50 | – | 6.25 | 3.13 | – | 1.56 | – | – | –
9 | CC(C)=CCn1c[n+](CC2=C(C(=O)[O-])N3C(=O)C(NC(=O)/C(=N\OC(C)(C)C(=O)O)c4csc(N)n4)C3SC2)c2ccccc21 (stereo not drawn) [Y, 7-{2-(2-aminothiazole-4-yl)-2-[potassium(2,2-dimethylacetate)oxyimino]acetamide}-3-[benz-3-N-(3-methyl-2-butenyl)-1-imidazoliomethyl]-3-cephem-4-carboxylate] | 1.56 | 6.25 | 12.5 | – | 3.13 | 25 | > 100 | 12.5 | 6.25 | – | – | – | – | 6.25 | –
